Common to all, as to assay: cryo-EM structure
One experiment addresses T1, ORC complex (Saccharomyces cerevisiae, UniProt P50874+P54784+P54790+P54791).
T1 construct: gene ORC1; with Origin recognition complex subunit 2; Origin recognition complex subunit 6
It is filed as binding. The note with it: wild-type ORC in OCCM-Mcm2RA (sites Orc4-Orc1, Orc5-Orc4, Orc3-Orc5) and in OC1M-Mcm5RA (Orc5-Orc4, Orc3-Orc5); 2-3 mM ATP, Mg2+, pH 7.6, 30 C.

Experiment [1] relates to T2, MCM-Cdt1 complex.
T2 construct: gene MCM2; with Cell division cycle protein CDT1
It is filed as binding, Saccharomyces cerevisiae. Conditions: OC1M-Mcm5RA complex (no Cdc6) on ARS1 DNA with ORC; 2 mM ATP added, Mg2+, pH 7.6, 30 C; sites Mcm5/2, 2/6, 6/4 and 4/7; conformers 1 and 2.

Experiment [2] deals with T2, MCM-Cdt1 complex. It is filed as binding, Saccharomyces cerevisiae. The note with it: OCCM-Mcm2RA complex on ARS1 DNA with ORC-Cdc6; 3 mM ATP added, Mg2+, pH 7.6, 30 C; all six MCM ATPase sites occupied, ADP assigned from density.

Each structure is given as a SMILES string.

T1 sequence (P54784 whole entry): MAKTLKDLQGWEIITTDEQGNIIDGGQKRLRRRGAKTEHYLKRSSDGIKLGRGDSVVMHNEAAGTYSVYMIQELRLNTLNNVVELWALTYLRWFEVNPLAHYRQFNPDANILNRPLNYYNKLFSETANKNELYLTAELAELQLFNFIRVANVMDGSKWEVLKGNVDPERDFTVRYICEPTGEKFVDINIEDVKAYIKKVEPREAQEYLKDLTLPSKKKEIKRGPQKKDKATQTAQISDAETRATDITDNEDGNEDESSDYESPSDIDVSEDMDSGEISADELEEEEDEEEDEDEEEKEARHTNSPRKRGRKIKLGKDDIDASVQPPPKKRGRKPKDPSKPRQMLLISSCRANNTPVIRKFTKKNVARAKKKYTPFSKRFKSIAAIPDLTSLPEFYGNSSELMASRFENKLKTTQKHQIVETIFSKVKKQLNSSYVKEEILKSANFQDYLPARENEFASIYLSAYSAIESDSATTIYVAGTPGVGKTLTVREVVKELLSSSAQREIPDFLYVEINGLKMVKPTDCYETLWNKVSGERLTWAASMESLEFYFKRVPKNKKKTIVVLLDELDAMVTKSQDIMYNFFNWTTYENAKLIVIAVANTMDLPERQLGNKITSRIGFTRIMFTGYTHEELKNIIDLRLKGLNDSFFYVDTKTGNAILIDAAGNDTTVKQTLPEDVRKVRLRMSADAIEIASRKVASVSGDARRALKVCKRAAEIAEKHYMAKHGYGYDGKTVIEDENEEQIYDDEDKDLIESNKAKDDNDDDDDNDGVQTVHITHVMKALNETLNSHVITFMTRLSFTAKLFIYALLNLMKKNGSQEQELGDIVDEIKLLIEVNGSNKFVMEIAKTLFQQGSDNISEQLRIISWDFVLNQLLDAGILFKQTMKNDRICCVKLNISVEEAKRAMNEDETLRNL
T1 sequence (P54790 2-616): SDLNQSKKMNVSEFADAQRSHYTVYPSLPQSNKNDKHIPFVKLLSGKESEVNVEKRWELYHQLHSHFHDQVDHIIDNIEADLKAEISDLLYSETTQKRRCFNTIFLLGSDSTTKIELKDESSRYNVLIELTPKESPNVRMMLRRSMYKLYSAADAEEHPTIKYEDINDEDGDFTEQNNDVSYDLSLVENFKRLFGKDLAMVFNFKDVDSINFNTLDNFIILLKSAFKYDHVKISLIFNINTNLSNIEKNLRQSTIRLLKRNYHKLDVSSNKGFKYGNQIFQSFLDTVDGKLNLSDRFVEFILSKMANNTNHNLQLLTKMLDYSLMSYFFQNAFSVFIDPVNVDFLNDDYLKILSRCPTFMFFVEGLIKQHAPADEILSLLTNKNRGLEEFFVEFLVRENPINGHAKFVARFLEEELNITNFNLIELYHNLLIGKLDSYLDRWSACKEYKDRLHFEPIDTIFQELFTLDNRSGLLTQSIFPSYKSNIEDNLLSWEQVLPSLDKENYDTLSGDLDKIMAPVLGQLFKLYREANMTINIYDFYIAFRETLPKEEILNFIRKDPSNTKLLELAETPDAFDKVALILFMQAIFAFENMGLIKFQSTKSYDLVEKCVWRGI
T1 sequence (P54791 whole entry): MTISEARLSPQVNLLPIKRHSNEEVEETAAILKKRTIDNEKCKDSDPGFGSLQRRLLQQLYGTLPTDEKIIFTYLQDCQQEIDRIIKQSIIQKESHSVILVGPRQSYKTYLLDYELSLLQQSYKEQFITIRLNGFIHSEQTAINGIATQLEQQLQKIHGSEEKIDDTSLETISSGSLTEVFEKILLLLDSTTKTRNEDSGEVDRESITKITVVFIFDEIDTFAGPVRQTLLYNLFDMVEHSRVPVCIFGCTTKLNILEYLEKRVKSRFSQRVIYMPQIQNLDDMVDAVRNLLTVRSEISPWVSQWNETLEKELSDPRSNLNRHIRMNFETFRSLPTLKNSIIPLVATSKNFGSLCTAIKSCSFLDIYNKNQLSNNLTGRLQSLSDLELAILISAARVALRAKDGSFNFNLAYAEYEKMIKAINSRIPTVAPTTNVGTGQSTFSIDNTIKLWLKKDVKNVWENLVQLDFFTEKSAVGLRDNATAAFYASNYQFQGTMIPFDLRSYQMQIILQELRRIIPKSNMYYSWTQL
T1 sequence (P50874 whole entry): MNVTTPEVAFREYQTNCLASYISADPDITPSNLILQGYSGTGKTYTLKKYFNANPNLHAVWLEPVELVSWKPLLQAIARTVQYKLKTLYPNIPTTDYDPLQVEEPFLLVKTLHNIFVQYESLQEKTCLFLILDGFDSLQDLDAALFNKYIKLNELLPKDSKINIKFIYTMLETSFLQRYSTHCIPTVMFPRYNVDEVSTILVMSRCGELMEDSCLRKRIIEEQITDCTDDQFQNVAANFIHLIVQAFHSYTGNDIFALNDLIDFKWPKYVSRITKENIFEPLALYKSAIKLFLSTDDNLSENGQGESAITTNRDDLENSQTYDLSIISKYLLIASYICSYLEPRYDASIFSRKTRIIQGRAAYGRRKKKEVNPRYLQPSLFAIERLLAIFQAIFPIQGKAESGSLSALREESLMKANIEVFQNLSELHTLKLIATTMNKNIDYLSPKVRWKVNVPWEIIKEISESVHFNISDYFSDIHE
T1 sequence (P32833 whole entry partner): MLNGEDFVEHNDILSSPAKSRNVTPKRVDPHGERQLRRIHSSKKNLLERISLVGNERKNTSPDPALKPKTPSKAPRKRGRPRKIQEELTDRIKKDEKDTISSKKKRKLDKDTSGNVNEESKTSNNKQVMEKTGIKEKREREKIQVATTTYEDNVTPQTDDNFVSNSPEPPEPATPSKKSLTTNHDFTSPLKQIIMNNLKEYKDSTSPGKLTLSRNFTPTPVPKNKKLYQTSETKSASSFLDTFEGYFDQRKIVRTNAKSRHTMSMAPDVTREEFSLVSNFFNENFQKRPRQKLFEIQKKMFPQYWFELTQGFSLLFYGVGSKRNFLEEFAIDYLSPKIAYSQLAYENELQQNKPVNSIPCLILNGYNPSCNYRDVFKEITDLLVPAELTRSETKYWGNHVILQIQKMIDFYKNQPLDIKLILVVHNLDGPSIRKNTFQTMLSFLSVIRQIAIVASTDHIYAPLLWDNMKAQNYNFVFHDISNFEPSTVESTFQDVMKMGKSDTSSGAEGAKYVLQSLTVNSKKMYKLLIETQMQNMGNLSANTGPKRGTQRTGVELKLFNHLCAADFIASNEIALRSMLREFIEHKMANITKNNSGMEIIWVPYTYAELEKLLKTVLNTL
T1 sequence (P38826 whole entry partner): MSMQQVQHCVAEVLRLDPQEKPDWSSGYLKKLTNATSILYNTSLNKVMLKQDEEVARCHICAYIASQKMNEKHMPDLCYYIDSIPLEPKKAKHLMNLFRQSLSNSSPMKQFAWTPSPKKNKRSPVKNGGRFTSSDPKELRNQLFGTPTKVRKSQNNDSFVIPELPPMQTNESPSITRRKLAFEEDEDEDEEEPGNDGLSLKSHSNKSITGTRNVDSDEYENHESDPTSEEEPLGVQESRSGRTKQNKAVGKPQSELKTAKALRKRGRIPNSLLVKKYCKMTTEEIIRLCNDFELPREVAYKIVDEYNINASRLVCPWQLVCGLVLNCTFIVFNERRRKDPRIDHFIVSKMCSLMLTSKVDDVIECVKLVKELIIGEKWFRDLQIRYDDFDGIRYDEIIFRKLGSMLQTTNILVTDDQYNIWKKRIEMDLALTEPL

As to `Nc1ncnc2c1ncn2[C@@H]1O[C@H](COP(=O)(O)OP(=O)(O)OP(=O)(O)O)[C@@H](O)[C@H]1O` [ATP], the cryo-EM structure result at ORC complex is “ATP can only be observed in the Orc4-Orc1, Orc5-4 and Orc3-5 nucleotide-binding sites”. For the compound `Nc1ncnc2c1ncn2[C@@H]1O[C@H](COP(=O)(O)OP(=O)(O)O)[C@@H](O)[C@H]1O` [ADP], the cryo-EM structure result in the experiment with MCM-Cdt1 complex [1] is on record as “Four ATPase sites were identified as occupied, with ADP modelled based on the density”; with MCM-Cdt1 complex [2] it was “All six ATPase sites were identified as occupied, with ADP modelled based on the density”.

The record behind these values is publication PMC11748629, “Unidirectional MCM translocation away from ORC drives origin licensing” (Nature Communications, 2025).
